The subject of assay [1] is Phakopsora pachyrhizi (the causal agent of Asian soybean rust). In words: Test A: preventive spray on soybean seedlings, Asian soybean rust, visual disease rating. It is filed as in vivo. The conditions noted are these: soybean seedlings, 100 = 100% disease control, 0 = no control. An outline of the steps:
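Preventive test: soybean seedlings received a run-off spray of compound suspended at the set ppm in 50/50 acetone/water plus 250 ppm PEG400, and one day later a P. pachyrhizi spore inoculum. Visual scoring (0 none to 100 full disease control) followed 24 h saturated incubation and 8 days' growth chamber, both at 22° C.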

In assay [2] the test system is Puccinia recondita f. sp. tritici (the causal agent of wheat leaf rust). In words: Test C: preventive spray on wheat seedlings, wheat leaf rust, visual disease rating. The conditions noted are these: wheat seedlings, 100 = 100% disease control, 0 = no control. It is filed as in vivo. An outline of the steps:
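Wheat seedlings sprayed to run-off with compound in acetone/water (50/50) with 250 ppm PEG400, then inoculated with spores the following day. After 24 h saturated humidity at 20° C. and 6 days in growth chamber at 20° C., disease rated visually as % control relative to untreated controls.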

The structures appear in SMILES notation.

As to `COC(=O)c1cnn(CCc2ccc(-c3noc(C(F)(F)F)n3)cc2)c1` [compound 436], the “Test A disease control rating” value in assay [1] (10 ppm test suspension) is 100%. In addition, the “Test C disease control rating” value in assay [2] (10 ppm test suspension) is listed as 74%.
For `CCOC(=O)c1cnn(CCc2ccc(-c3noc(C(F)(F)F)n3)cc2)c1` [compound 437], in that order: 100% and 86%.
On to `CCCOC(=O)c1cnn(Cc2cc(OC)c(-c3noc(C(F)(F)F)n3)s2)c1` [compound 439], for which the “Test A disease control rating” value in assay [1] (10 ppm test suspension) came to 0%. In assay [2] (10 ppm test suspension), the “Test C disease control rating” value is given as 0%.
Take `C=CCOC(=O)c1cnn(Cc2cc(OC)c(-c3noc(C(F)(F)F)n3)s2)c1` [compound 440]: the “Test A disease control rating” value in assay [1] (10 ppm test suspension) stood at 0%. Moreover, the “Test C disease control rating” value in assay [2] (10 ppm test suspension) was 0%.
Regarding `CC(=O)Nc1cnn(Cc2ccc(-c3noc(C(F)(F)F)n3)cc2)c1` [compound 441], in assay [1] (10 ppm test suspension), the “Test A disease control rating” value turned out to be 87%. Moreover, the “Test C disease control rating” value in assay [2] (10 ppm test suspension) is recorded as 9%.
For `CS(=O)(=O)Nc1cnn(Cc2ccc(-c3noc(C(F)(F)F)n3)cc2)c1` [compound 442], in that order: 44% and 0%.
For `CCOC(=O)Nc1cnn(Cc2ccc(-c3noc(C(F)(F)F)n3)cc2)c1` [compound 443], in that order: 100% and 74%.
The corresponding values for `FC(F)(F)c1nc(-c2ccc(Cn3ncc4c(I)ccnc43)cc2)no1` [compound 444] are 96% and 86%.
In the case of `FC(F)(F)c1nc(-c2ccc(Cn3cc4c(I)ccnc4n3)cc2)no1` [compound 445], in assay [1] (10 ppm test suspension), the “Test A disease control rating” value was 100%. Moreover, the “Test C disease control rating” value in assay [2] (10 ppm test suspension) is reported as 99%.
Regarding `Nc1nn(Cc2ccc(-c3noc(C(F)(F)F)n3)cc2)c2ncccc12` [compound 446], in assay [1] (10 ppm test suspension), the “Test A disease control rating” value is on record as 99%. Besides, the “Test C disease control rating” value in assay [2] (10 ppm test suspension) is reported as 86%.
The corresponding values for `CCCCCOC(=O)c1cnn(Cc2ccc(-c3noc(C(F)(F)F)n3)cc2)c1` [compound 447] are 100% and 100%.
Take `O=C(OCCCCl)c1cnn(Cc2ccc(-c3noc(C(F)(F)F)n3)cc2)c1` [compound 448]: the “Test A disease control rating” value in assay [1] (10 ppm test suspension) is reported as 100%. The “Test C disease control rating” value in assay [2] (10 ppm test suspension) is 100%.
`O=C(NCC(F)(F)F)c1cnn(Cc2ccc(-c3noc(C(F)(F)F)n3)cc2)c1` [compound 449]: the “Test A disease control rating” value in assay [1] (10 ppm test suspension) turned out to be 100%. For the same compound, in assay [2] (10 ppm test suspension), the “Test C disease control rating” value is given as 100%.
As to `CCOC(=O)c1cnn(Cc2ccc3cc(-c4noc(C(F)(F)F)n4)ccc3c2)c1` [compound 457], the “Test A disease control rating” value in assay [1] (50 ppm test suspension) is 77%. The “Test C disease control rating” value in assay [2] (50 ppm test suspension) amounted to 0%.
For `CN(C)C(=O)C1=NOC(Cc2ccc(-c3noc(C(F)(F)F)n3)s2)C1` (centres unmarked) [compound 460], in that order: 100% and 99%.
The corresponding values for `COCCNC(=O)C1=NOC(Cc2ccc(-c3noc(C(F)(F)F)n3)s2)C1` (centres unmarked) [compound 461] are 100% and 100%.
`O=C1N(Cc2ccc(-c3noc(C(F)(F)F)n3)cc2)CCc2cncn21` [compound 462]: in assay [1] (10 ppm test suspension), the “Test A disease control rating” value is recorded as 100%. Further, the “Test C disease control rating” value in assay [2] (10 ppm test suspension) amounted to 89%.
The corresponding values for `COCCCOC(=O)c1cnn(Cc2ccc(-c3noc(C(F)(F)F)n3)cc2)c1` [compound 474] are 100% and 100%.
Regarding `O=C(OCCN1CCOCC1)c1cnn(Cc2ccc(-c3noc(C(F)(F)F)n3)cc2)c1` [compound 475], in assay [1] (10 ppm test suspension), the “Test A disease control rating” value is on record as 100%. The “Test C disease control rating” value in assay [2] (10 ppm test suspension) is given as 91%.
In the case of `CCOC(=O)COC(=O)c1cnn(Cc2ccc(-c3noc(C(F)(F)F)n3)cc2)c1` [compound 476], the “Test A disease control rating” value in assay [1] (10 ppm test suspension) is listed as 100%. In addition, the “Test C disease control rating” value in assay [2] (10 ppm test suspension) is on record as 86%.
The corresponding values for `O=C(OCCCl)c1cnn(Cc2ccc(-c3noc(C(F)(F)F)n3)cc2)c1` [compound 477] are 100% and 100%.
Turning to `O=C(OCCBr)c1cnn(Cc2ccc(-c3noc(C(F)(F)F)n3)cc2)c1` [compound 478], the “Test A disease control rating” value in assay [1] (50 ppm test suspension) was 81%. In addition, in assay [2] (50 ppm test suspension), the “Test C disease control rating” value is given as 19%.
On to `O=C(OCc1ccccn1)c1cnn(Cc2ccc(-c3noc(C(F)(F)F)n3)cc2)c1` [compound 479], for which the “Test A disease control rating” value in assay [1] (10 ppm test suspension) amounted to 100%. For the same compound, the “Test C disease control rating” value in assay [2] (10 ppm test suspension) is reported as 100%.
With `CC(C)CCOC(=O)c1cnn(Cc2ccc(-c3noc(C(F)(F)F)n3)cc2)c1` [compound 480], in assay [1] (10 ppm test suspension), the “Test A disease control rating” value is 100%. The “Test C disease control rating” value in assay [2] (10 ppm test suspension) was found to be 98%.
For `CCC(C)OC(=O)c1cnn(Cc2ccc(-c3noc(C(F)(F)F)n3)cc2)c1` (centres unmarked) [compound 481], in that order: 100% and 100%.
For `C=C(Cl)COC(=O)c1cnn(Cc2ccc(-c3noc(C(F)(F)F)n3)cc2)c1` [compound 482], in that order: 100% and 100%.
For `O=C(NCc1cccnc1)c1cnn(Cc2ccc(-c3noc(C(F)(F)F)n3)cc2)c1` [compound 483], in that order: 100% and 54%.
Consider `O=C(NCc1ccccc1)c1cnn(Cc2ccc(-c3noc(C(F)(F)F)n3)cc2)c1` [compound 484], for which the “Test A disease control rating” value in assay [1] (10 ppm test suspension) is 100%. For the same compound, in assay [2] (10 ppm test suspension), the “Test C disease control rating” value was determined as 100%.
For `O=C(Nc1ccccc1)c1cnn(Cc2ccc(-c3noc(C(F)(F)F)n3)cc2)c1` [compound 485], the “Test A disease control rating” value in assay [1] (10 ppm test suspension) worked out at 100%. Also, the “Test C disease control rating” value in assay [2] (10 ppm test suspension) came to 99%.
For `C=C(C#N)COC(=O)c1cnn(Cc2ccc(-c3noc(C(F)(F)F)n3)cc2)c1` [compound 486], in that order: 100% and 89%.
For `CCCOC(=O)c1cnn(C(C)c2ccc(-c3noc(C(F)(F)F)n3)s2)c1` (centres unmarked) [compound 493], in that order: 100% and 100%.
For `Cc1ccc(C(O)c2ccc(-c3noc(C(F)(F)F)n3)cc2)cc1` (centres unmarked) [compound 501], in that order: 100% and 0%.
As for `FC(F)(F)c1nc(-c2ccc(Cn3ccc(S(F)(F)(F)(F)F)n3)cc2)no1` [compound 503], the “Test A disease control rating” value in assay [1] (10 ppm test suspension) was 43%. Also, in assay [2] (10 ppm test suspension), the “Test C disease control rating” value is recorded as 0%.
The corresponding values for `FC(F)(F)c1nc(-c2ccc(Cn3nccc3S(F)(F)(F)(F)F)cc2)no1` [compound 504] are 74% and 0%.
